For 26 molecules, IC50 results are on record in patent US8822463B2, “Methylcyclohexane derivatives and uses thereof” (Sk Biopharmaceuticals Co., Ltd., priority 2010, dated 2014).

Structures can show the parent of a compound that is named as a salt. Some results are limits rather than exact numbers.

Test [1] deals with LPS-induced NO production in mouse monocytes (RAW). As to the kind of experiment: LPS-induced NO production inhibition test, mouse monocytes (RAW). The format is cell-based. The note with it: Monocyte, RAW cells, 20 ng/ml LPS, 24 hours, Griess reagent. How it is done: (§1) Mouse monocytes (RAW) and mouse microglia (BV2) cells were cultured on a 96-well transparent plate (Nunc) in such a way that each of the wells contained 60,000 and 35,000 cells respectively. After 18 hours, when stabilized, the cells were treated with lipopolysaccharide (Sigma, USA, Cat No. L2630) in a morbid state derived from 20 ng/ml of Escherichia coli O111:B4 and 4 different concentrations (50 uM, 12.5 uM, 3.1 uM, and 0.8 uM) of the compounds synthesized according to Examples 1 to 55. Then, the cells were cultured for 24 hours, and a concentration of increased NO was measured. The NO concentration was determined by measuring absorption at a wavelength of 540 nm after a Griess reagent including 0.1% N-(1-naphthyl)ethylenediamine dihydrochloride, 1% sulfanilamide, and 2.5% phosphoric acid were added thereto.
In general terms: The Griess reaction detects nitrite, a stable product of nitric oxide.

In test [2] the test system is LPS-induced NO production in mouse microglia (BV2). As to the kind of experiment: LPS-induced NO production inhibition test, mouse microglia (BV2). The format is cell-based. As to conditions: BV-2, BV2 cells, 20 ng/ml LPS, 24 hours, Griess reagent. How it is done: as §1

Usually IC50 stands for the concentration that gives 50% inhibition. Lower therefore signals inhibition by little substance. With `O=C(NCCc1ccccc1)OC1CCC(COC(=O)N2CCCC2)CC1` (stereo not shown) [Example 1, pyrrolidine-1-carboxylic acid 4-phenethylcarbamoyloxy-cyclohexylmethyl ester], the results for the IC50 in test [1] and in test [2] were 27.9 µM and 19.9 µM, respectively.
On the same counts, the results for `O=C(NCCc1ccccn1)OC1CCC(COC(=O)N2CCCC2)CC1` (stereo not shown) [Example 2, pyrrolidine-1-carboxylic acid 4-(2-pyridin-2-yl-ethylcarbamoyloxy)-cyclohexylmethyl ester] are more than 50 µM and 40.1 µM.
Consider `O=C(NCCc1cccnc1)OC1CCC(COC(=O)N2CCCC2)CC1` (stereo not shown) [Example 3, pyrrolidine-1-carboxylic acid 4-(2-pyridin-3-yl-ethylcarbamoyloxy)-cyclohexylmethyl ester], for which the values for the IC50 in test [1] and in test [2] were 22.3 µM and 30.3 µM, respectively.
On the same counts, the results for `O=C(NCCc1ccncc1)OC1CCC(COC(=O)N2CCCC2)CC1` (stereo not shown) [Example 4, pyrrolidine-1-carboxylic acid 4-(2-pyridin-4-yl-ethylcarbamoyloxy)-cyclohexylmethyl ester] are 30.3 µM and 32.9 µM.
In the case of `O=C(NCCc1cccc[n+]1[O-])OC1CCC(COC(=O)N2CCCC2)CC1` (stereo not shown) [Example 5, pyrrolidine-1-carboxylic acid 4-[2-(1-oxy-pyridin-2-yl)-ethylcarbamoyloxy]-cyclohexylmethyl ester], the IC50 is more than 50 µM in test [1] and 48.7 µM in test [2].
For `O=C(NCCc1ccc[n+]([O-])c1)OC1CCC(COC(=O)N2CCCC2)CC1` (stereo not shown) [Example 6, pyrrolidine-1-carboxylic acid 4-[2-(1-oxy-pyridin-3-yl)-ethylcarbamoyloxy]-cyclohexylmethyl ester], in that order: 41.2 µM and more than 50 µM.
For `O=C(NCc1ccccn1)OC1CCC(COC(=O)N2CCCC2)CC1` (stereo not shown) [Example 7, pyrrolidine-1-carboxylic acid 4-(pyridin-2-ylmethylcarbamoyloxy)-cyclohexylmethyl ester], in that order: more than 50 µM and more than 50 µM.
For the molecule `O=C(NCc1ccncc1)OC1CCC(COC(=O)N2CCCC2)CC1` (stereo not shown) [Example 9, pyrrolidine-1-carboxylic acid 4-(pyridin-4-ylmethylcarbamoyloxy)-cyclohexylmethyl ester], the IC50 in test [1] and in test [2] was more than 50 µM each time.
On to `CN(Cc1ccccn1)C(=O)OC1CCC(COC(=O)N2CCCC2)CC1` (stereo not shown) [Example 10, pyrrolidine-1-carboxylic acid 4-(methyl-pyridin-2-ylmethyl-carbamoyloxy)-cyclohexylmethyl ester], for which the IC50 in test [1] was determined as 46.1 µM; in test [2] it was 5.3 µM.
For `O=C(NCc1cc[n+]([O-])cc1)OC1CCC(COC(=O)N2CCCC2)CC1` (stereo not shown) [Example 11, pyrrolidine-1-carboxylic acid 4-(1-oxy-pyridin-4-ylmethylcarbamoyloxy)-cyclohexylmethyl ester], in that order: 10.2 µM and more than 50 µM.
On the same counts, the results for `O=C(NCc1ccc[n+]([O-])c1)OC1CCC(COC(=O)N2CCCC2)CC1` (stereo not shown) [Example 12, pyrrolidine-1-carboxylic acid 4-(1-oxy-pyridin-3-ylmethylcarbamoyloxy)-cyclohexylmethyl ester] are more than 50 µM and more than 50 µM.
On the same counts, the results for `O=C(NCc1cccc[n+]1[O-])OC1CCC(COC(=O)N2CCCC2)CC1` (stereo not shown) [Example 13, pyrrolidine-1-carboxylic acid 4-(1-oxy-pyridin-2-ylmethylcarbamoyloxy)-cyclohexylmethyl ester] are 27.9 µM and more than 50 µM.
`O=C(NCc1cccc(Cl)n1)OC1CCC(COC(=O)N2CCCC2)CC1` (stereo not shown) [Example 14, pyrrolidine-1-carboxylic acid 4-(6-chloro-pyridin-2-ylmethylcarbamoyloxy)-cyclohexylmethyl ester]: the figures for the IC50 in test [1] and in test [2] were 21.7 µM and 22.3 µM, respectively.
In the case of `O=C(NCc1ccc(C(F)(F)F)nc1)OC1CCC(COC(=O)N2CCCC2)CC1` (stereo not shown) [Example 19, pyrrolidine-1-carboxylic acid 4-(6-trifluoromethyl-pyridin-3-ylmethylcarbamoyloxy)-cyclohexylmethyl ester], the IC50 stood at 11.1 µM in test [1] and 13.8 µM in test [2].
For `Cc1cccc(NC(=O)OC2CCC(COC(=O)N3CCCC3)CC2)n1` (stereo not shown) [Example 22, pyrrolidine-1-carboxylic acid 4-(6-methyl-pyridin-2-ylcarbamoyloxy)-cyclohexylmethyl ester], in that order: 35.8 µM and 21.7 µM.
For `O=C(Nc1cc(Cl)nc(Cl)c1)OC1CCC(COC(=O)N2CCCC2)CC1` (stereo not shown) [Example 24, pyrrolidine-1-carboxylic acid 4-(2,6-dichloro-pyridin-4-ylcarbamoyloxy)-cyclohexylmethyl ester], in that order: more than 50 µM and more than 50 µM.
As to `O=C(Nc1cccc[n+]1[O-])OC1CCC(COC(=O)N2CCCC2)CC1` (stereo not shown) [Example 25, pyrrolidine-1-carboxylic acid 4-(1-oxy-pyridin-2-ylcarbamoyloxy)-cyclohexylmethyl ester], the IC50 in test [1] was 24.9 µM; in test [2], 15.5 µM.
On the same counts, the results for `O=C(NCc1ccccn1)OC1CCC(COC(=O)N2CCCCC2)CC1` (stereo not shown) [Example 26] are 46.1 µM and 36.8 µM.
On to `O=C(NCc1ccccn1)OC1CCC(COC(=O)N2CCOCC2)CC1` (stereo not shown) [Example 27], for which the IC50 in test [1] is 50 µM; in test [2], more than 50 µM.
On the same counts, the results for `O=C(NCc1ccccn1)OC1CCC(COC(=O)N2CCNCC2)CC1` (stereo not shown) [Example 28, HCl salt] are more than 50 µM and 44.8 µM.
On the same counts, the results for `CN1CCN(C(=O)OCC2CCC(OC(=O)NCc3ccccc3)CC2)CC1` (stereo not shown) [Example 29, 4-methyl-piperazine-1-carboxylic acid 4-benzylcarbamoyloxy-cyclohexylmethyl ester] are 46.1 µM and more than 50 µM.
`O=C(OC1CCC(COC(=O)N2CCCC2)CC1)c1ccccn1` (stereo not shown) [Example 30, pyridine-2-carboxylic acid 4-(pyrrolidine-1-carbonyloxymethyl)-cyclohexyl ester]: the IC50 in test [1] and in test [2] was more than 50 µM in each case.
`O=C(OC1CCC(COC(=O)N2CCCC2)CC1)c1cccnc1` (stereo not shown) [Example 31, pyridine-3-carboxylic acid 4-(pyrrolidine-1-carbonyloxymethyl)-cyclohexyl ester]: the figures for the IC50 in test [1] and in test [2] were more than 50 µM and 21.1 µM, respectively.
On the same counts, the results for `O=C(OC1CCC(COC(=O)N2CCCC2)CC1)c1ccncc1` (stereo not shown) [Example 32, pyridine-4-carboxylic acid 4-(pyrrolidine-1-carbonyloxymethyl)-cyclohexyl ester] are 21.1 µM and 34.8 µM.
For `O=C(Cc1ccccn1)OC1CCC(COC(=O)N2CCCC2)CC1` (stereo not shown) [Example 33, pyrrolidine-1-carboxylic acid 4-(2-pyridin-2-yl-acetoxy)-cyclohexylmethyl ester], in that order: more than 50 µM and more than 50 µM.
For `O=C(OCC1CCC(OCc2ccccc2)CC1)N1CCCC1` (stereo not shown) [Example 34, pyrrolidine-1-carboxylic acid 4-benzyloxy-cyclohexylmethyl ester], in that order: 24.9 µM and 27.1 µM.
